The values below come from publication PMC4507497 (Chemistry & biology, 2015).

Usually EC50 stands for the concentration that produces a half-maximal response. A word on the Ki: it is a measure of affinity in units of concentration, obtained from inhibition or displacement. Low values mean a stronger hold on the target, high ones a looser hold on the target.

For experiment [1], the system named is human DOR. The following applies: human (but not murine) DOR; cited from earlier work.
Experiment [2] concerns three tested frog ORs. As to the kind of experiment: cAMP inhibition, the three tested frog ORs. The class given is cell-based, Rana pipiens. The conditions noted are these: frog KOR, MOR, DOR; cAMP assay. Background: Changes in cAMP serve as a functional read-out for many G protein-coupled receptors.
Experiment [3] relates to h-rpMOR-wt (rpMOR with humanized N-terminus). As to the kind of experiment: Inhibition of isoproterenol-stimulated cAMP response, chimera h-rpMOR-wt. The class given is cell-based, human / Rana pipiens. The following applies: Table 3, HEK 293T cells.
Experiment [4] has as its target Frog MOR (rpMOR) (Lithobates pipiens, UniProt Q7T069). As to the kind of experiment: cell-based. The arrangement: species or system Rana pipiens.
In experiment [5] the test system is h-rpMOR-E2h (h-rpMOR-EL2h). As to the kind of experiment: Inhibition of isoproterenol-stimulated cAMP response, chimera h-rpMOR-E2h. The conditions noted are these: for EC50 / log EC50 ±SEM: Table 3, h-rpMOR-E2h, HEK 293T cells. In kind it is cell-based, human / Rana pipiens.
Experiment [6] has as its target Frog KOR (Lithobates pipiens, UniProt B0JCV9). As to the kind of experiment: Inhibition of isoproterenol-induced cAMP production. In kind it is cell-based, Rana pipiens.
For experiment [7], the system named is h-rpMOR-E3h (h-rpMOR-EL3h). As to the kind of experiment: Inhibition of isoproterenol-stimulated cAMP response, chimera h-rpMOR-E3h. The conditions noted are these: for EC50 / log EC50 ±SEM: Table 3, h-rpMOR-E3h, HEK 293T cells. In kind it is cell-based, human / Rana pipiens.
Experiment [8] concerns rpDOR mutants Met287Leu, Asn294Asp and Tyr296Leu. As to the kind of experiment: Functional studies, rpDOR mutants Met287Leu, Asn294Asp and Tyr296Leu. The class given is cell-based, Rana pipiens. The conditions noted are these: data not shown.
For experiment [9], the system named is rpDOR Trp301Leu (7.35). As to the kind of experiment: Functional and binding studies, rpDOR mutant Trp301Leu. In kind it is cell-based, Rana pipiens.
For experiment [10], the system named is human DOR (Leu300Trp). As to the kind of experiment: Inhibition of cAMP response, hDOR Leu300Trp mutant. The class given is cell-based. The conditions noted are these: hDOR Leu300Trp vs hDOR.
Experiment [11] deals with ORs in the brains and spinal cord. The conditions noted are these: Rana pipiens tissue; cited from earlier work.
The test system of experiment [12] is Frog DOR. The class given is cell-based, Rana pipiens. The following applies: Table 2, HEK 293T cells; for EC50: NA = not active.
Experiment [13] has as its target Human DOR (Homo sapiens, UniProt P41143). As to the kind of experiment: cell-based.
In experiment [14] the target is Human KOR (Homo sapiens, UniProt P41145). As to the kind of experiment: cell-based.
Chain of Human KOR (P41145 whole entry): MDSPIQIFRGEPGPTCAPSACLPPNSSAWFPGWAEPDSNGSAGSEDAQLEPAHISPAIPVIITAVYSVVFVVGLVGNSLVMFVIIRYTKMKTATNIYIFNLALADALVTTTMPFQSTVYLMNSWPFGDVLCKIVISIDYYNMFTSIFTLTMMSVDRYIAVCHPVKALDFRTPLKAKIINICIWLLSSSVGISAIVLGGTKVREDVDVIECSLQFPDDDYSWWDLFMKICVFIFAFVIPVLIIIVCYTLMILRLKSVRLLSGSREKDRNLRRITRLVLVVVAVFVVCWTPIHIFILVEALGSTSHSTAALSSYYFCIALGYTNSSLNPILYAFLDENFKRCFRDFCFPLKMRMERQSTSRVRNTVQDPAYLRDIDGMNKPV
The target of experiment [15] is h-rpMOR-E3h. As to the kind of experiment: Competition binding with radiolabeled diprenorphine, h-rpMOR-E3h. The arrangement: species or system human / Rana pipiens. The following applies: Table 3, [3H]-diprenorphine competition.
The target in experiment [16] is h-rpMOR-wt. As to the kind of experiment: Competition binding with radiolabeled diprenorphine, h-rpMOR-wt. The following applies: Table 3, [3H]-diprenorphine competition. The arrangement: species or system human / Rana pipiens.
In experiment [17] the target is rpMOR. As to the kind of experiment: Competition binding with radiolabeled diprenorphine, rpMOR. The conditions noted are these: Table 3, [3H]-diprenorphine competition. The arrangement: species or system Rana pipiens.
Experiment [18] deals with h-rpMOR-E2h (h-rpMOR EL2h). As to the kind of experiment: Competition binding with radiolabeled diprenorphine, h-rpMOR-E2h. The arrangement: species or system human / Rana pipiens. The conditions noted are these: Table 3, [3H]-diprenorphine competition.
The mark [19] stands for this setting: relative to chimera with humanized N-terminus only.

Several values for one entry are separate records, joined by “and”; a condition that tells them apart may be missing. Equal entries are not always repeated. No end group written: not given here.

Chain of Frog KOR (B0JCV9 1-390): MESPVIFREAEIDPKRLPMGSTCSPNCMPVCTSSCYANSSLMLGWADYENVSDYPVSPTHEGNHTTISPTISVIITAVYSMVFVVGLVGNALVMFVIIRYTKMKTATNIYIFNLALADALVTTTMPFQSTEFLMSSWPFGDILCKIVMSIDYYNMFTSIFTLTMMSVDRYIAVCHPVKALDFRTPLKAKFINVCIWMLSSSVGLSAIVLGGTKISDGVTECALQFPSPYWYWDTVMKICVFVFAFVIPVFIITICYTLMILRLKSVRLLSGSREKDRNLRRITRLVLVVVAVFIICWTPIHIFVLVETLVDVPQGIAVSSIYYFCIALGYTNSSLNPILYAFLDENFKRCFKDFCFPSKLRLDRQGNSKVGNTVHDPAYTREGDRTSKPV
Chain of Frog MOR (rpMOR) (Q7T069 1-388): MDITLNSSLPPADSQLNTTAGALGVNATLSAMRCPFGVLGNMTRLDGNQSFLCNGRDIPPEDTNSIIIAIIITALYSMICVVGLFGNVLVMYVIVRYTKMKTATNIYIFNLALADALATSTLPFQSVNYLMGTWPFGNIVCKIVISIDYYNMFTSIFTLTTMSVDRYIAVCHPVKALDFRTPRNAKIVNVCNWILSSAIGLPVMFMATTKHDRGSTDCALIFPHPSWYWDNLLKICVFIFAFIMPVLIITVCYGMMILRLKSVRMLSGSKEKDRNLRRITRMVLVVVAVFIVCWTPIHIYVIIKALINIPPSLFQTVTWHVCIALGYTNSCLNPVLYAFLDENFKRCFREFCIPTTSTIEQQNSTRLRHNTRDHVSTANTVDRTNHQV
Chain of Human DOR (P41143 whole entry): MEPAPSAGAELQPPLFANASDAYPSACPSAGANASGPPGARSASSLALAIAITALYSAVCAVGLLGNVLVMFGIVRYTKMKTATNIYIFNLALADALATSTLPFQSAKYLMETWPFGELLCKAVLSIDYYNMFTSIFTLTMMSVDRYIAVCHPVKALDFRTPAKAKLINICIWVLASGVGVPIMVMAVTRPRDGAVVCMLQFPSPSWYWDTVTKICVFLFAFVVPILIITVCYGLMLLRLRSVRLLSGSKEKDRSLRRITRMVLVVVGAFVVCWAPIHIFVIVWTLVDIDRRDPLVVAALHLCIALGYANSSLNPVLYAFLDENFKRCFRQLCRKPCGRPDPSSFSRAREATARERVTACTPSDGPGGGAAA

As to DIPP-NH2, the agonist activity entry in experiment [1] is given as “weak partial agonist activity”.
In the case of `CC(C)[C@H](NC(=O)[C@H](CC(=O)O)NC(=O)[C@H](Cc1ccccc1)NC(=O)[C@@H](C)NC(=O)[C@@H](N)Cc1ccc(O)cc1)C(=O)N[C@H](C(=O)NCC(N)=O)C(C)C` [Deltorphin C, Tyr-D-Ala-Phe-Asp-Val-Val-Gly-NH2], the “agonist activity at the three tested frog ORs” value in experiment [2] was “inactive”.
Take `NC(=O)[C@H](Cc1ccccc1)NC(=O)[C@H](Cc1c[nH]c2ccccc12)NC(=O)[C@@H]1CCCN1C(=O)[C@@H](N)Cc1ccc(O)cc1` [Endomorphin 1]: the EC50 in experiment [3] is 43 nM; in experiment [4] (EC50), 381 nM and 360 nM; in [4] (log EC50 ±SEM) it was 398 nM and 316 nM; in experiment [5], 95 nM. In addition, in [3], the “log EC50 ±SEM” value is reported as −7.4 ± 0.07 M.
Consider YGGFIRKPDKYKFLNA [Xendorphin], for which the “activity at frog and human KORs compared” value in experiment [6] is recorded as “equally active”.
With `NC(=O)[C@H](Cc1ccccc1)NC(=O)[C@H](Cc1ccccc1)NC(=O)[C@@H]1CCCN1C(=O)[C@@H](N)Cc1ccc(O)cc1` [Endomorphin 2], the EC50 in experiment [3] was 93 nM; in experiment [4] (EC50) it was 782 nM and 920 nM; in experiment [4] (log EC50 ±SEM), 794 nM and 1000 nM; in [7] it was 32 nM; in experiment [5], 190 nM. Moreover, the “log EC50 ±SEM” value in experiment [5] was −6.7 ± 0.32 M.
Take deltorphin: in experiment [8], the “response of the mutants” value is “did not respond”. Also, the “response of the mutant compared to rpDOR” value in [9] was “substantially increased potency and affinity”. Moreover, the “decrease of potency by the L300W mutation” value in experiment [10] is given as approximately 2000 fold. The “affinities to ORs in the brains and spinal cord” value in experiment [11] is 30 to 80 µM.
Consider YGGFLRKYPK [α-Neoendorphin], for which the “fold less potent at the frog KOR” value in [6] turned out to be 10 fold. Also, the EC50 is 78 nM in [6] (EC50); 79.4 nM in [6] (log EC50 ±SEM); 1600 nM in experiment [12]; 1600 nM in [13] (EC50); 1580 nM in [13] (log EC50 ±SEM); 11 nM in experiment [14] (EC50). Also, in experiment [14] (log EC50 ±SEM), the EC50 was 10 nM. The “log EC50 ±SEM” value in experiment [12] was −5.8±0.08 logM.
As for `C[C@@H](NC(=O)[C@@H](N)Cc1ccc(O)cc1)C(=O)NCC(=O)N(C)[C@@H](Cc1ccccc1)C(=O)NCCO` [DAMGO, [D-Ala^2,N-MePhe^4,Gly-ol]-enkephalin], the inhibition constant Ki in [15] is 120 nM; in experiment [16] it was 100 nM; in experiment [17], 160 nM; in [18] it was 80 nM. The EC50 in [6] (EC50, Table 2, HEK 293T cells, NA = not active) is 2400 nM; in experiment [6] (log EC50 ±SEM, Table 2, HEK 293T cells), 2510 nM; in experiment [3] it was 96 nM; in [4] (EC50) it was 1500 nM and 1900 nM; in [4] (log EC50 ±SEM), 1580 nM and 2000 nM; in [7], 22 nM. The compound further returned an EC50 in experiment [5] of 81 nM. The results for the “log EC50 ±SEM” value in [3], in experiment [7] and in [5] were −7.0 ± 0.08 M, −7.7 ± 0.07 M and −7.1 ± 0.07 M, respectively.
In the case of `CC(C)C[C@H](NC(=O)[C@H](Cc1ccccc1)NC(=O)CNC(=O)CNC(=O)[C@@H](N)Cc1ccc(O)cc1)C(=O)N[C@@H](CCCN=C(N)N)C(=O)N[C@@H](CCCN=C(N)N)C(=O)N[C@@H](CCC(N)=O)C(=O)N[C@@H](Cc1ccccc1)C(=O)N[C@@H](CCCCN)C(=O)N[C@H](C(=O)N[C@H](C(=O)N[C@H](C(=O)O)[C@@H](C)O)C(C)C)C(C)C` [Dynorphin B], the EC50 was 170 nM in experiment [6] (EC50); 158 nM in experiment [6] (log EC50 ±SEM); 360 nM in [13] (EC50); 398 nM in experiment [13] (log EC50 ±SEM); 5200 nM in [4] (EC50); 5010 nM in experiment [4] (log EC50 ±SEM).
Take `C[C@@H](NC(=O)[C@@H](N)Cc1ccc(O)cc1)C(=O)N[C@@H](Cc1ccccc1)C(=O)NCC(=O)N[C@@H](Cc1ccc(O)cc1)C(=O)N1CCC[C@H]1C(=O)N[C@@H](CO)C(N)=O` [Dermorphin]: the EC50 in [3] worked out at 230 nM; in experiment [7], 130 nM; in [5], 40 nM. Moreover, the “log EC50 ±SEM” value in experiment [3] is given as −6.7 ± 0.08 M; in experiment [7] it was −6.9 ± 0.1 M; in experiment [5], −7.4 ± 0.07 M. Further, the values for the Ki in experiment [17] and in [18] were 1640 nM and 112 nM, respectively. In addition, the “enhancement of receptor activation by humanization of EL3” value in experiment [7] (setting [19]) is ~ 2 fold. The “enhancement of receptor activation by humanization of EL2” value in experiment [5] (setting [19]) is given as ~ 10 fold. The “affinities to ORs in the brains and spinal cord” value in experiment [11] was 30 to 80 µM.
As for `CC(C)C[C@@H](NC(=O)[C@H](Cc1ccccc1)NC(=O)CNC(=O)[C@@H](C)NC(=O)[C@@H](N)Cc1ccc(O)cc1)C(=O)O` [DADLE, [D-Ala^2,D-Leu^5]-enkephalin], in experiment [12], the “log EC50 ±SEM” value is −6.5±0.06 logM. Moreover, the EC50 in experiment [12] was 353 nM; in experiment [4] (EC50), 480 nM; in [4] (log EC50 ±SEM), 501 nM.
